Experimental data published in patent US20080167532A1, “ASSESSING CANCER TREATMENT RESPONSIVENESS” (Mayo Foundation for Medical Education and Research, priority 2006, published 2008).

Columns and labels:
DRO cells = assay: Clonogenic growth of DRO cells in soft agar; format: cell-based, human; conditions: two weeks
Method: The ability of RS5444 to inhibit clonogenic growth of DRO cells in soft agar was also examined (FIG. 3C). DRO cells were plated in triplicate on soft agar for colony formation and treated with the indicated doses of RS5444. Colonies were stained and counted after two weeks.

[1] = tested on: ATC tumors implanted into athymic nude mice; assay: Affymetrix Plus 2.0 array, nucleic acid expression in DRO tumors implanted into athymic nude mice; format: in vivo
Method: Affymetrix Plus 2.0 arrays were used to identify nucleic acids altered between control vehicle-treated and RS5444-treated ATC cells from cell culture and tumors implanted ectopically into athymic nude mice. Cells in culture were treated with a single dose of 10 nM RS5444 for either 2, 6, or 24 hours. Animals were treated with 0.025% RS5444 after implantation of 1×10^6 DRO cells. Animals were fed a diet including 0.025% RS5444 for 35 days, and tumor volume was measured weekly. Tumor tissues were removed, RNA was isolated, and nucleic acid expression was analyzed. Examples of some nucleic acids, the expression of which was altered in both the animal derived tumors and cells in culture, are presented in Table 1. Some of the nucleic acids regulated by PPARγ in ATC cells (e.g., BMP2, MMP14, ANGPTL4, and ITGA5) are secreted polypeptides (Table 1).

PPARγ = molecular target: T1, PPARγ (Homo sapiens, UniProt P37231); assay: PPRE3-tk-luc reporter (dual luciferase) assay in DRO cells; format: cell-based; parameters: endogenous in cells; host or cells: DRO90-1 (DRO) human anaplastic thyroid carcinoma cells; conditions: DRO cells, PPRE3-tk-luc reporter, 24 hours; read-out: EC50, concentration at which 50% maximal transcriptional response occurs
T1 sequence (P37231 1-505): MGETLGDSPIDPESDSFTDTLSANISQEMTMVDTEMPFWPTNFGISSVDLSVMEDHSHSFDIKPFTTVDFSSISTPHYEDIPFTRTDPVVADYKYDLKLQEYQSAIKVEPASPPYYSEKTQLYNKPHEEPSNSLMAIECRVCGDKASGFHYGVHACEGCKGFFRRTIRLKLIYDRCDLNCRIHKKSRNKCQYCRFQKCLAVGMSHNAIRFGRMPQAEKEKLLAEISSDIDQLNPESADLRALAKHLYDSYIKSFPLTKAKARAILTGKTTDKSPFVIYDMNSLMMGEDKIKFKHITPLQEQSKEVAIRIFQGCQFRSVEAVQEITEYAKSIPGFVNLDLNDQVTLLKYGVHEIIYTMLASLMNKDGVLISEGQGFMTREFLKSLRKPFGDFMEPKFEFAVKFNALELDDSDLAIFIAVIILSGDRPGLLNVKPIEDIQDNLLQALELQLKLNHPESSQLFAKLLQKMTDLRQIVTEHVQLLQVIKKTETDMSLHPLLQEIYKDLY
Method: The effects of PPARγ agonists on DRO cells were investigated. […] Firefly luciferase activity was normalized to renilla […] activity (RLU) and plotted as mean values ±S.D. (FIG. 3A).
Cells were transfected with siRNA for 72 hours followed by transfected with a PPRE3-tk-luc reporter and treatment with 10 nM RS5444 for 24 hours. […] Cotransfection with renilla luciferase allowed for normalization to relative light units (RLU).
Cells were plated in 6-well culture plates at initial concentrations of 2×10^5 cells/well. After overnight incubation, cells were transfected with PPRE/luc and CMV/renilla luciferase plasmid using Lipofectamine 2000 (Invitrogen), and after 24 hours, cells were treated with PPAR-γ agonists at indicated concentrations. After 24 hours of drug treatments, cells were washed with PBS and lysed in 1× reporter lysis buffer (Roche), and luciferase activity was measured with a Dual Luciferase assay kit (Promega, Madison Wis.) with a luminometer (Veritas/Turner Biosystems). The enzyme activity was normalized for efficiency of transfection on the basis of renilla activity levels and reported as relative light units (RLU).

Compound: Cc1cc(Oc2ccc3nc(COc4ccc(CC5SC(=O)NC5=O)cc4)n(C)c3c2)cc(C)c1N (stereo not shown) [RS5444]
- inhibition of colony formation in soft agar (DRO cells; 1 nM): 63%
- inhibition of colony formation in soft agar (DRO cells; 10 nM): 98%
- inhibition of colony formation in soft agar (DRO cells; 100 nM): 99.4%
- Fold change in vivo, ADRB1 ([1]; ADRB1, 0.025% in diet for 35 days): −2 fold
- Fold change in vivo, ANGPTL4 ([1]; ANGPTL4, 0.025% in diet for 35 days): 2 fold
- Fold change in vivo, BMP2 ([1]; BMP2, 0.025% in diet for 35 days): 3.8 fold
- Fold change in vivo, HR ([1]; HR, 0.025% in diet for 35 days): 1.5 fold
- Fold change in vivo, IL1B ([1]; IL1B, 0.025% in diet for 35 days): 5.6 fold
- Fold change in vivo, ITGA5 ([1]; ITGA5, 0.025% in diet for 35 days): 1.9 fold
- Fold change in vivo, LMAN1 ([1]; LMAN1, 0.025% in diet for 35 days): −4.3 fold
- Fold change in vivo, MMP14 ([1]; MMP14, 0.025% in diet for 35 days): 2.5 fold
- Fold change in vivo, RhoB ([1]; RhoB, 0.025% in diet for 35 days): 2 fold
- EC50 (PPARγ): ~1 nM
